Laboratory results taken from PMC6017115, “Inhibitory Effect of Sauchinone on UDP-Glucuronosyltransferase (UGT) 2B7 Activity” (Molecules : A Journal of Synthetic Chemistry and Natural …, 2018).

Legend:
[1] = biological target: T1, UGT2B7 (Homo sapiens, UniProt P16662); test: Enzyme kinetic assay (Ki, Dixon plot) of UGT2B7-mediated zidovudine glucuronidation; settings: for inhibition mode on UGT2B7: Dixon plot, visual inspection
T1 sequence (P16662 24-529): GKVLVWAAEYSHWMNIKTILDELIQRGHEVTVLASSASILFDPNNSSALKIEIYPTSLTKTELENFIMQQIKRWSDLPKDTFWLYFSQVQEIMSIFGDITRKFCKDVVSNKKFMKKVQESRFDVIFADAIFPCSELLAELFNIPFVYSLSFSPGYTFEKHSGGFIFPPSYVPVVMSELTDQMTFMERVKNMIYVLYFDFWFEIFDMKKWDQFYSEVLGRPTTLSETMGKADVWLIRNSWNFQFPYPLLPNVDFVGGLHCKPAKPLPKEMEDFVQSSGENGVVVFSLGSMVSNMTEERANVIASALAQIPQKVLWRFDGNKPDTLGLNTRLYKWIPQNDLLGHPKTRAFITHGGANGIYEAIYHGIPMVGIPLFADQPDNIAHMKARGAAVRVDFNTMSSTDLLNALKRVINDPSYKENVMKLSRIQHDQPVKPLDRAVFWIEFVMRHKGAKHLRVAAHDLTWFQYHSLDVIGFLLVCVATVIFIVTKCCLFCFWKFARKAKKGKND
Experimental: Inhibitory effects of sauchinone on UGT1A1, 1A3, 1A4, 1A6, 1A9, and 2B7 activities were evaluated using HLMs. […] Spiked volume of UGT cocktail set was 1% (v/v) of total volume of mixture. […] The reaction was initiated by adding 5 mM UDPGA to a final volume of 150 μL and incubated at 37 °C for 15 or 60 min in a thermomixer at 500 rpm. Each reaction was stopped by adding 150 μL of ice-cold methanol containing 50 ng/mL IS. These mixtures were then centrifuged (12,000 rpm for 10 min at 4 °C) and 5 μL of the supernatant was injected into a UPLC-MS/MS system. […] Their IC50 values were compared to that of sauchinone. All inhibitors were dissolved in methanol (except for hecogenin, which was dissolved in dimethyl sulfoxide) and serially diluted to the required concentrations using the same solutions. The final concentration of organic solvent of inhibitors was 1% (v/v). All studies were performed in triplicate and mean values were used in the analysis. The half maximal inhibition constant (IC50) of sauchinone on UGT isoforms was estimated using GraphPad program.
Based on IC50 values, Ki values of sauchinone for UGT1A6 and 2B7 were determined. Concentrations of 0–200 μM of sauchinone were used. Other procedures were similar to those mentioned above in the study of reversible inhibitory effects of sauchinone. Inhibitory characteristics of sauchinone were initially estimated by nonlinear least squares regression analysis and Ki values were determined by Dixon plots.

[2] = biological target: T1, UGT2B7; test: Inhibition of UGT2B7 (zidovudine glucuronidation) in human liver microsomes; type: in vitro ADME; set-up: tissue Corning Life Sciences 452156; host or cells: pooled human liver microsomes
Experimental: Their IC50 values were compared to that of sauchinone. […] UGT-mediated activities in the presence of sauchinone as an inhibitor were expressed as percentages of corresponding control values (in absence of sauchinone). From percentages of control activity versus inhibitor concentrations, a sigmoid shaped curve was fitted to the data and IC50 as an enzyme inhibition parameter was calculated by fitting the Hill equation to the data using GraphPad Prism 5 (GraphPad Software Inc., San Diego, CA, USA).

Ki [1]: 0.524 µM | inhibition mode on UGT2B7 [1]: noncompetitively inhibited | inhibition mode on UGT2B7 ([1]; listed as sauchinone): noncompetitive inhibition mode | Vmax for UGT2B7-mediated zidovudine glucuronidation with inhibitor ([1]; sauchinone as inhibitor at 50 μM (decrease from 31.5 at 0 μM)): 0.495 μM/min/mg protein | IC50 [2]: 0.279 µM
Compound: C[C@@H]1[C@H]2c3cc4c(cc3O[C@@]35OCOC3=CC(=O)[C@H](C[C@H]1C)[C@@H]25)OCO4 [Sauchinone]
